Experimental data taken from publication PMC5750217 (Nature Communications, 2018).
Numbering of substitutions follows the chain as printed. Names may count otherwise. “And” between values parts separate entries of the source, which are not always exact repeats. Equal entries are not always repeated. Where two headings read alike, the source gives them in different places.

What was measured:
GltPh-R397C [1] = target: T1, GltPh-R397C (Pyrococcus horikoshii, UniProt O59010, R397C); test: biochemical
T1 construct: hexa-His (N, cleaved yes); made in house; host or cells: Escherichia coli Top10 (pBAD)
Description: (§1) Mutant and wild-type GltPh with an amino-terminal hexa-His tag were expressed in Escherichia coli Top10 cells (Invitrogen), which were grown in Luria broth medium at 37 °C. Ampicillin was added to a final concentration of 100 μg per ml. To induce expression of GltPh, 0.1% L-arabinose was added when cells reached an optical density of 0.6 at 660 nm, and cells were harvested 4 h post induction. Membranes were isolated, and then solubilised with n-dodecyl-β-D-maltopyranoside (C12M, Anatrace). Histidine containing proteins were purified using Ni^2+−nitrilotriacetic acid resin (Qiagen). The histidine tag was subsequently removed from GltPh by digestion with thrombin (10 U per mg protein) and the protein further purified on a Superdex 200 size exclusion column, where the detergent was exchanged to n-decyl-β-D-maltopyranoside (C10M, Anatrace).
(§2) Pure protein was reconstituted into liposomes composed of 75% E. coli Polar Lipid Extract and 25% 1-palmitoyl-2-oleoyl-sn-glycero-3 ^−phopshocholine (Avanti Polar Lipids). Lipids were mixed, dried under nitrogen and resuspended in internal buffer (100 mM KCl, 20 mM HEPES-Tris pH 7.5) using brief sonication (Laboratory Supplies Co.). The lipid suspension was frozen in liquid nitrogen and thawed at room temperature several times. Liposomes were formed by extrusion through 400 nm polycarbonate membranes (Avanti Polar Lipids) and were treated with Triton X-100 at a 0.5:1 (w/w) detergent to lipid ratio prior to the addition of protein at 0.25 μg protein per mg lipid. The protein/lipid mixture was left at room temperature for 30 min before detergent was removed using SM2 Biobeads (BioRad). The mixture was then incubated with gentle agitation, with four consecutive batches of Biobeads (80 mg per ml). Proteoliposomes were concentrated by centrifugation at 150,000 g for 30 min, resuspended at 100 mg lipid per ml and either used immediately or flash-frozen in liquid nitrogen and stored at −80 °C.
(§3) Mutant and wild-type GltPh-mediated transport of radiolabelled substrate was assayed by diluting proteoliposomes (100 mg lipid per ml) 133-fold into uptake buffer (100 mM NaCl, 20 mM HEPES-Tris pH 7.5, 1 μM valinomycin, 100 nM–1 µM L-[^3H]substrate) pre-warmed to 30 °C. At each time point, a 200 µl aliquot was removed and diluted 10-fold into ice-cold quench buffer (100 mM LiCl, 20 mM HEPES-Tris pH 7.5), followed by immediate filtration over nitrocellulose filters (0.22 μm pore size, Millipore). The filters were washed with ice-cold quench buffer and assayed for radioactivity using a Trilux beta counter (PerkinElmer). To establish substrate concentration–response curves, extraliposomal L-[^3H]substrate was varied between 500 nM and 100 µM, maintaining NaCl concentrations at 300 mM. For inhibitor concentration–response curves, for wild-type GltPh 100 nM L-[^3H]aspartate, and for mutant GltPh 1 µM L-[^3H]serine, was co-applied with varying inhibitor concentrations. Background levels of uptake were measured by diluting proteoliposomes into internal buffer (100 mM KCl, 20 mM HEPES-Tris pH 7.5) containing 1 µM of valinomycin and the indicated concentrations of L-[^3H]substrate.
Supplementary Figure 6. GltPh‐R397C, ASCT1 and ASCT2 are functional cysteine transporters. (a) Purified GltPh‐R397C was reconstituted into liposomes and 10µM 35S‐cysteine transport was measured over 10 minutes alone or in the presence of 1 mM dithiothreitol (DTT). Background levels of uptake were measured by diluting proteoliposomes into internal buffer (100 mM KCl, 20 mM HEPES‐Tris pH 7.5) containing 1 µM of valinomycin and the 10µM 35S‐cysteine. […]
(c) Neutral amino acid exchange in GltPh‐R397C. Counterflow experiments in which Na+ and amino acid loaded liposomes were used to detect the transport of a range of unlabelled neutral amino acids by exchanging with external 3H‐serine. Counterflow assays were performed using liposomes containing 200mM NaCl, 20 mM HEPES/Tris pH 7.5, and 1 mM of unlabelled amino acid as indicated. […]

ASCTs = tested on: ASCTs; design: method as in PMID 9463476; conditions: quoted in discussion; cited from earlier work
GltPh-G396S/R397C = target: T2, GltPh-G396S/R397C (Pyrococcus horikoshii, UniProt O59010, G396S/R397C); test: biochemical; assay type: biochemical; conditions: for Reduction of L-[3H]serine transport by unlabelled competitor (in words): GltPh-R397C/G396S, 10 µM L-[3H]serine, 100-fold excess unlabelled amino acid
T2 construct: hexa-His (N, cleaved yes); made in house; host or cells: Escherichia coli Top10 (pBAD)
Description: as §1, §2, §3

GltPh-R397C [2] = target: T1, GltPh-R397C; test: biochemical; assay type: binding
Description: Fluorescence-based binding assays were performed by titrating purified protein (50 μg per ml) in 20 mM HEPES/Tris, pH 7.4, 200 mM choline chloride, 0.4 mM n-dodecyl^−β-D-maltopyranoside, 200 nM styryl fluorescent dye RH421 (Invitrogen, Inc., Grand Island, NY) with NaCl, L-ser, L-cys or benzylcysteine at 25 °C[51]. The RH421 dye was excited at 532 nm, and the fluorescence was collected at 628 nm using a QuantaMaster (Photon International Technology, Inc., Edison, NJ). Fluorescence emissions were measured after at least 10 min equilibration to ensure a stabilised signal. The data were analysed using GraphPad Prism version 6.0 for Mac (GraphPad Software, La Jolla California USA). Fractional fluorescence changes were normalised to maximal fluorescence changes, then plotted as a function of ligand concentration and fitted to the Hill equation. All the experiments were performed at least in triplicate.
Analysis of ligand binding data. The voltage sensitive amphipathic dye RH421 reports on Na+ binding to purified GltPh protein in detergent3. RH421 was used to follow Na+ binding to GltPh‐R397C protein either alone or in reactions coupled to binding of amino acids. […]
Coupled ions and amino acid binding was probed by titrating amino acids to the GltPh‐R397C protein in the presence of 10 – 100 mM Na+ ions. The obtained isotherms were analyzed to estimate an apparent number of Na+ ions coupled to binding of the amino acids.
Raw data were first normalized by the initial fluorescence of RH421 and plotted as fraction of fluorescence change (Supplementary […]
total amount of dye and detergent in the assay buffer.
To take into account significant amino acid‐independent Na+ binding, the sets of binding isotherms obtained at variable Na+ concentrations were fitted globally to a simplified binding equation: […]
KD,a is the combined dissociation constant for coupled Na+ and ligand binding and n is the apparent number of coupled ions. Fraction of the protein bound to either Na+ ions alone or to the ions and the […]
Fraction of the protein already bound to Na+ ions before ligand addition is: […]
Fractional fluorescence change Y is fitted to an equation: […]
where Y0 and ∆Y are, respectively, baseline and the signal difference between fully bound and apo […]
KD,a and n were fitted globally for each ligand. Y0 and ∆Y were adjusted for each isotherm independently. […]
individual isotherm to a standard Hill equation, plotted the apparent dissociation constants as functions of Na+ concentrations and compared the values to those predicted using the parameters from the global fits (Supplementary Figure 8).

wild-type GltPh [3] = target: T3, wild-type GltPh (Pyrococcus horikoshii, UniProt O59010); test: Proteoliposome transport assay, wild-type GltPh; assay type: biochemical
T3 construct: hexa-His (N, cleaved yes); made in house; host or cells: Escherichia coli Top10 (pBAD)
T3 sequence (O59010 1-425): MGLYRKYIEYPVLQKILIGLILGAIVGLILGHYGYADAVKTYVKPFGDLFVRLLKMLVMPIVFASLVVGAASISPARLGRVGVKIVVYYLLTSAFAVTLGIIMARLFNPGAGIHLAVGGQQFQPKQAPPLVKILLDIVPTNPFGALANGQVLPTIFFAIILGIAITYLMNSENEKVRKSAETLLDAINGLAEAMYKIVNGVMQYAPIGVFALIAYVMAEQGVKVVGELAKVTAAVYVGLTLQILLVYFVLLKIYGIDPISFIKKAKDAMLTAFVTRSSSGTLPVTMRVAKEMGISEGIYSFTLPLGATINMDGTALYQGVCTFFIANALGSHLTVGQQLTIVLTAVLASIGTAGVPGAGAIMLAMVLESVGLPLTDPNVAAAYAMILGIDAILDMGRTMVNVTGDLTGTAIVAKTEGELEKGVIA
Description: as §1, §2, §3

GltPh-R397C [4] = target: T1, GltPh-R397C; assay type: biochemical; conditions: 100 nM L-[3H]aspartate, 1 µM L-[3H]glutamine, 10 µM 35S-cysteine ± 1 mM DTT, Na+ gradient
glutamate transporters = tested on: glutamate transporters; design: method as in PMID 9463476; conditions: quoted in discussion; cited from earlier work
wild-type GltPh [5] = target: T3, wild-type GltPh; conditions: published values, cited from earlier work
[6] = target: the molecule itself; test: crystal structure; hanging-drop vapour diffusion at 4 °C, protein ~7 mg per ml in n-decyl-maltopyranoside, 15-21% PEG1000, 0.1 M LiSO4, 0.05 M citric acid, 0.05 M Na2HPO4; space group P61; refined with threefold NCS restraints; with L-aspartate (wild type) or 5 mM L-cysteine, L-serine or benzylcysteine (R397C)
[7] = GltPh-G396S/R397C, 1 µM L-[3H]serine, read-out: IC50 for inhibition of L-[3H]serine transport

T1 sequence (O59010 whole entry R397C): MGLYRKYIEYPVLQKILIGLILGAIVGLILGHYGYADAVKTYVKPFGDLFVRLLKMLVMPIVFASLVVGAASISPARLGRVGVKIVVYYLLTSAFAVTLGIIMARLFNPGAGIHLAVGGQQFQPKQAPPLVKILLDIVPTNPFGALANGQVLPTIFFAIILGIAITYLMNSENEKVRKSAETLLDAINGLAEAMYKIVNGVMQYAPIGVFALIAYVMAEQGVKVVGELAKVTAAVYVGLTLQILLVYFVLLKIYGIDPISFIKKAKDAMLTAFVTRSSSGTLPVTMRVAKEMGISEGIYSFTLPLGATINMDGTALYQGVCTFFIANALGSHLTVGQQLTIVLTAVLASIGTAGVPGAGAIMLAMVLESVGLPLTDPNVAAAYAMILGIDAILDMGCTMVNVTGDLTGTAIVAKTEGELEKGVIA
T2 sequence (O59010 whole entry G396S/R397C): as the sequence (O59010 whole entry R397C) above, with G396S counted along it

N[C@@H](CSCc1ccccc1)C(=O)O
IC50 for inhibition of L-[3H]serine transport (GltPh-R397C [1]; GltPh-R397C, 1 µM L-[3H]serine): reduced affinity compared with benzylserine | Affinity for the ASCTs (ASCTs): ~ 1 mM | IC50 (GltPh-G396S/R397C): 280 ± 60 µM | Kd (GltPh-R397C [2]): 1000 ± 300 µM | Apparent number of Na+ ions coupled to binding (n) (GltPh-R397C [2]; GltPh-R397C, global fit of isotherms at 10–100 mM Na+, 25 °C): 0.8 ± 0.04 | IC50 for inhibition of L-[3H]aspartate transport (wild-type GltPh [3]; 100 nM L-[3H]aspartate): ineffective

N[C@@H](CC(=O)O)C(=O)O [L-aspartate]
Transport of radiolabelled substrate into proteoliposomes (in words) (GltPh-G396S/R397C; GltPh-G396S/R397C, 100 nM L-[3H]aspartate, 1 µM L-[3H]glutamine, Na+ gradient, pH 7.5): does not effectively transport | Transport of radiolabelled substrate into proteoliposomes (in words) (GltPh-R397C [4]): no longer capable of transporting

CSCC[C@H](N)C(=O)O [L-methionine]
Reduction of L-[3H]serine transport by unlabelled competitor (in words) (GltPh-G396S/R397C): to a similar extent

N[C@H](C(=O)O)[C@H](OCc1ccccc1)C(=O)O [TBOA, L-threo-β-oxybenzylaspartic acid]
IC50 for inhibition of L-[3H]serine transport (GltPh-R397C [1]; GltPh-R397C, 1 µM L-[3H]serine): poorly inhibited | IC50 (GltPh-G396S/R397C; [7]): 500 ± 200 µM | Affinity for the glutamate transporters (glutamate transporters): ~ 50 μM | IC50 (wild-type GltPh [3]; 100 nM L-[3H]aspartate, read-out: IC50 for inhibition of L-[3H]aspartate transport): 2 ± 1 µM

C[C@H](N)C(=O)O [L-alanine]
EC50 (GltPh-R397C [1]): 14 ± 3 µM | EC50 (GltPh-G396S/R397C): 4 ± 0.2 µM | Transport of radiolabelled substrate into proteoliposomes (in words) (wild-type GltPh [3]; 1 µM L-[3H]substrate, Na+ gradient, pH 7.5): not transported

[Na+] [Na+]
Kd (wild-type GltPh [5]; ref Reyes et al., 2013, read-out: KD,Na of Na+ binding): 99300 µM | nNa of Na+ binding (wild-type GltPh [5]; ref Reyes et al., 2013): 1.6 | Hill coefficient nNa of Na+ binding in the absence of amino acids (GltPh-R397C [2]; GltPh-R397C): 1.2 and 1.2 ± 0.1 | Kd (GltPh-R397C [2]; GltPh-R397C, Hill fit, read-out: KD,Na of Na+ binding in the absence of amino acids): 38000 µM

N[C@@H](COCc1ccccc1)C(=O)O [benzylserine]
IC50 (GltPh-R397C [1]; GltPh-R397C, 1 µM L-[3H]serine, read-out: IC50 for inhibition of L-[3H]serine transport): 110 ± 10 µM | Affinity for the ASCTs (ASCTs): ~ 1 mM | IC50 (GltPh-G396S/R397C; [7]): 120 ± 20 µM | IC50 for inhibition of L-[3H]aspartate transport (wild-type GltPh [3]; 100 nM L-[3H]aspartate): ineffective

CC(C)[C@H](N)C(=O)O [L-valine]
Reduction of L-[3H]serine transport by unlabelled competitor (in words) (GltPh-G396S/R397C): to a similar extent

B1: GltPh-R397C (natural protein, Pyrococcus horikoshii)
chain: MGLYRKYIEYPVLQKILIGLILGAIVGLILGHYGYADAVKTYVKPFGDLFVRLLKMLVMPIVFASLVVGAASISPARLGRVGVKIVVYYLLTSAFAVTLGIIMARLFNPGAGIHLAVGGQQFQPKQAPPLVKILLDIVPTNPFGALANGQVLPTIFFAIILGIAITYLMNSENEKVRKSAETLLDAINGLAEAMYKIVNGVMQYAPIGVFALIAYVMAEQGVKVVGELAKVTAAVYVGLTLQILLVYFVLLKIYGIDPISFIKKAKDAMLTAFVTRSSSGTLPVTMRVAKEMGISEGIYSFTLPLGATINMDGTALYQGVCTFFIANALGSHLTVGQQLTIVLTAVLASIGTAGVPGAGAIMLAMVLESVGLPLTDPNVAAAYAMILGIDAILDMGCTMVNVTGDLTGTAIVAKTEG
notes: GltPh of Pyrococcus horikoshii, wild-type background, with the point mutation R397C; Crystallised with L-cysteine, L-serine or benzylcysteine (5 mM each); source: E. coli Top10, purified (Ni-NTA, thrombin digestion, Superdex 200 SEC in detergent); not shown: His6, N-terminal, cleaved
stoichiometry N [6]: 3

B2: wild-type GltPh, aspartate transporter from Pyrococcus horikoshii (natural protein)
chain: B1 chain with C397R
notes: GltPh, Na+-dependent aspartate transporter of the archaeon Pyrococcus horikoshii; wild-type background (not the seven-histidine mutant CAT-7); Crystallised with L-aspartate and Na+ in n-decyl-maltopyranoside; Three protomers in the asymmetric unit (threefold NCS); also called Wt; source: E. coli Top10, purified (Ni-NTA, thrombin digestion, Superdex 200 SEC in detergent); not shown: His6, …
binding result [6]: binds
